Results reported in US9107849B2, “Anti-glycation agent comprising a Garcinia kola extract or fraction” (UNIVERSITE D'ANGERS, priority 2012, dated 2015).

Legend:
[1] = ORAC antioxidant potential; conditions: for ORAC (μmol TE/g): TE: Trolox Equivalent
albumin = albumin (Bos taurus, UniProt P02769); assay: Anti-AGE activity measured on albumin (pentosidine-type AGEs formed); type: biochemical; conditions: quantity of pentosidine-type AGEs formed
calf skin collagen = biological target: T1, calf skin collagen (Bos taurus, UniProt P02453+P02465); assay: Anti-AGE activity on calf skin collagen in solution in the presence of ribose (pentosidine-type AGE fluorescence); type: biochemical; conditions: for IC50: read-out: Anti-AGE activity measured on collagen (IC50 in mg/mL) (converted)
T1 construct: from tissue; host or cells: calf skin
T1 sequence (P02453 162-1217 limits assumed): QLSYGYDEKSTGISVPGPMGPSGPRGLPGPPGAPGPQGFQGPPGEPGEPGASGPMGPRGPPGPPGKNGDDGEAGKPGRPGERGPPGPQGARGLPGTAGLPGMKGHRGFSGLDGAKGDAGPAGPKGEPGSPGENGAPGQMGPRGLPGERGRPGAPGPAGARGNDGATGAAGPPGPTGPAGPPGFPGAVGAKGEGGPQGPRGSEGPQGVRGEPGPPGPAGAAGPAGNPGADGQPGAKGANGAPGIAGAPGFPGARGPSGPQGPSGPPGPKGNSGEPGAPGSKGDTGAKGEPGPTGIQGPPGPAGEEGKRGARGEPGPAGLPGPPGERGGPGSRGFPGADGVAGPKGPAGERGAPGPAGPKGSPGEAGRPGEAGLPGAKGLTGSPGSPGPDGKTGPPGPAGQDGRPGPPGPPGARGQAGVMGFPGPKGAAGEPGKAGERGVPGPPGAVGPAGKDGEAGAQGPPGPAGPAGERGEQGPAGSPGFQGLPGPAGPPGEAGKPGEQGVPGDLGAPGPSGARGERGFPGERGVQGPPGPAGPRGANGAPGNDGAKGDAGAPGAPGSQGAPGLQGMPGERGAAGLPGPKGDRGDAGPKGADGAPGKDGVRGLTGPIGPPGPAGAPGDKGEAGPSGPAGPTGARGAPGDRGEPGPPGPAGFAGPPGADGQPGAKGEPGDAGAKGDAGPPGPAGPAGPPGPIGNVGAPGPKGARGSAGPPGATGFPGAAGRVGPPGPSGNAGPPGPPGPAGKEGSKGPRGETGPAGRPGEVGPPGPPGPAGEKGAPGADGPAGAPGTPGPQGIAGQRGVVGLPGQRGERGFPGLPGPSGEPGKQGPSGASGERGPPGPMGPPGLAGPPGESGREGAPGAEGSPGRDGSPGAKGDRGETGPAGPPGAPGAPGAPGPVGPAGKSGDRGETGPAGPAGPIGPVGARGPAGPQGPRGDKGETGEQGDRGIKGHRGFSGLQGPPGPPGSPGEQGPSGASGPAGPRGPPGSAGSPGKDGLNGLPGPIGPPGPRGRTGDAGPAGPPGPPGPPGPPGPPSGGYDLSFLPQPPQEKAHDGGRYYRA
T1 sequence (P02465 80-1117 limits assumed): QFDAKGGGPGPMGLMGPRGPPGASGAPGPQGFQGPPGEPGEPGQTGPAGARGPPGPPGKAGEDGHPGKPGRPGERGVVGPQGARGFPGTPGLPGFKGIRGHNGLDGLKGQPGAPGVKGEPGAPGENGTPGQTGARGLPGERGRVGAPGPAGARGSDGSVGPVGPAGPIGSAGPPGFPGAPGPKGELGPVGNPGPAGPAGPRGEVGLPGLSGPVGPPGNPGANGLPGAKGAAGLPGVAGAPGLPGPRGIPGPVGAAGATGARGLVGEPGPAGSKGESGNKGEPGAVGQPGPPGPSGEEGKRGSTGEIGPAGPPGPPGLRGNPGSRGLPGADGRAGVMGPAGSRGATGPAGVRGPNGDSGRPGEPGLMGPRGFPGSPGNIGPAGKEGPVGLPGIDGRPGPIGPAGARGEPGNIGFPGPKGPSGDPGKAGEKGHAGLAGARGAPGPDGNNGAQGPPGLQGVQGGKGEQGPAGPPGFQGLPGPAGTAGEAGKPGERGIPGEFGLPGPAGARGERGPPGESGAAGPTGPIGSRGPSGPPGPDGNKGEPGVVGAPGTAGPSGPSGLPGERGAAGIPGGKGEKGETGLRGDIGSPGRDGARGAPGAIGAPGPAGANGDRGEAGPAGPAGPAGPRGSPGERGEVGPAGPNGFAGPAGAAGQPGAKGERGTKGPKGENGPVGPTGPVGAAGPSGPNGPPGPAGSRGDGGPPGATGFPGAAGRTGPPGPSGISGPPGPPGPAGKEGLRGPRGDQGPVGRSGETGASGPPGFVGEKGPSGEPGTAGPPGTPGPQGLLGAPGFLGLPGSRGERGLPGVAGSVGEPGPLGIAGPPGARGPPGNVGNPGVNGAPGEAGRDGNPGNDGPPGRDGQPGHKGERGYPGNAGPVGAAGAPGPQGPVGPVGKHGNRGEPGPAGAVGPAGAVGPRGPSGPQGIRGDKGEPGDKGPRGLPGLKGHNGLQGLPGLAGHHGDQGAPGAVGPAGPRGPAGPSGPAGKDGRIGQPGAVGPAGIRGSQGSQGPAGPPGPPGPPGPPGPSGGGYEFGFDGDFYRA
Protocol: Calf skin collagen (0.1 mg/mL) and ribose (0.5 M) are incubated in phosphate buffer 50 mM pH 7.4 at 37° C. in a 96-well Greiner bio-one plate with a black bottom (100 μL). The same experiment is performed in the presence of an AGE formation inhibitor, such as aminoguanidine (1 mg/mL, DMSO 10%). The following control solutions are also prepared: collagen (0.1 mg/mL) with or without an AGE formation inhibitor (1 mg/mL, DMSO 10%) is incubated in phosphate buffer 50 mM pH 7.4 at 37° C.

[2] = DPPH antioxidant potential; conditions: for DPPH (μmol TE/g): TE: Trolox Equivalent
[3] = ribose, quantity of pentosidine-type AGEs formed, NA: Inactive

Chain of albumin (P02769 25-607): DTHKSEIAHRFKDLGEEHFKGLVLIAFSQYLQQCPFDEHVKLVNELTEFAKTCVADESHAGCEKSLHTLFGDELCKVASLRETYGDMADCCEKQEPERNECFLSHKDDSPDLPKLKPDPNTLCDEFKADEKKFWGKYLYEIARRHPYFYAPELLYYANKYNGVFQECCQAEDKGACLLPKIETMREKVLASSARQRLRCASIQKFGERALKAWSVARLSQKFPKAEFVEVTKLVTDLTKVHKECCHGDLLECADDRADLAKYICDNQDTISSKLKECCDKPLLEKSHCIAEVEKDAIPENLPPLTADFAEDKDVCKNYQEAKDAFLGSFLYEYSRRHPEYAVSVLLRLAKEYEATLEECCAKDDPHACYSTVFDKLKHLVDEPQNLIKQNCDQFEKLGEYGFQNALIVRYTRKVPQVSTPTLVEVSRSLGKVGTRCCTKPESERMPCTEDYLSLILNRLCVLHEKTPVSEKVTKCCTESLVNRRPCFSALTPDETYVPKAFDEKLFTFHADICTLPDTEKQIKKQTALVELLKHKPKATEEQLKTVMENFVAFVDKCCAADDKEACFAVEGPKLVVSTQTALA

| IC50 (calf skin collagen; [3]) [mM] | Compound | ORAC (μmol TE/g) [1] [μmol TE/g] | DPPH (μmol TE/g) [2] [μmol TE/g] | further results |
| --- | --- | --- | --- | --- |
| 13.5 | N=C(N)NN [Aminoguanidine] | 0 | 0 | antioxidant activity, ORAC test (in words) [1]: does not have an antioxidant activity; IC50 (albumin; read-out: Anti-AGE activity measured on albumin (IC50 in mg/mL) (converted)): 2.02 mM; antioxidant activity, DPPH test (in words) [2]: does not have an antioxidant activity |
|  | Oc1cc(O)c2c(c1)O[C@H](c1ccc(O)c(O)c1)[C@H](O)[C@H]2c1c(O)cc(O)c2c1O[C@H](c1ccc(O)c(O)c1)[C@H](O)C2 [Procyanidin B2] | 23720 | 3945 | Anti-AGE activity measured on albumin (IC50 in mg/mL) (albumin): 0.1 mg/mL |
| 1.16 | O=c1c(O)c(-c2ccc(O)c(O)c2)oc2cc(O)cc(O)c12 [Quercetin] |  | 6722 |  |
|  | C/C(=C\CC/C(C)=C/CC[C@]1(C)CCc2cc(O)cc(C)c2O1)CC/C=C(\C)C(=O)O [garcinoic acid] |  |  | anti-glycation activity on calf skin collagen (in words) (calf skin collagen): has a real anti-glycation activity, but nevertheless inferior to that of kolaviron |
|  | GB2 |  |  | Anti-AGE activity measured on collagen (IC50 in mg/mL) (calf skin collagen; [3]): 0.03 mg/mL |
